Source: patent publication US10189809B2, “SGC stimulators” (Ironwood Pharmaceuticals, Inc., priority 2010, dated 2019)

Experiments:
[1] = biological target: soluble guanylate cyclase (sGC) (Homo sapiens (Human), UniProt Q02108+Q02153); test: sGC-HEK-cGMP assay run with SNP incubation (HEK WC assay); type: cell-based; conditions: for Emax at 10 µM: read-out: HEK WC Assay (% Emax at 10 uM/with 10 uM SNP); for Emax at 30 µM: read-out: HEK WC Assay (% Emax at 30 uM/with 10 uM SNP)
Procedure: Human embryonic kidney cells (HEK293), endogenously expressing soluble guanylate cyclase (sGC), were used to evaluate the activity of test compounds. Compounds stimulating the sGC receptor should cause an increase in the intracellular concentration of cGMP. HEK 293 cells were seeded in Dulbecco's Modification of Eagle's Medium supplemented with fetal bovine serum (10% final) and L-glutamine (2 mM final) in a 200 μL volume at a density of 1×10^5 cells/well in a poly-D-lysine coated 96 well flat bottom plate and grown overnight at 37° C. Medium was aspirated and cells were washed with 1× Hank's Buffered Saline Salt Solution (200 μL). Cells were then incubated for 15 minutes at 37° C. with 0.5 mM 3-isobutyl-1-methylxanthine (200 μL). Test article and sodium nitroprusside were then added to the assay mixture (2 μL each) and incubated at 37° C. for 10 minutes. After the 10 minute incubation, the assay mixture was aspirated and 0.1M HCl (200 μL) was added to the cells. The plate was incubated at 4° C. for 30 minutes in the 0.1M HCl to stop the reaction and lysed the cells. The plates were then centrifuged at 1,200 g for 5 minutes at room temperature. Supernatants were collected and transferred to a new flat bottom 96 well plate for analysis. Vehicle controls were carried out using DMSO (1%). […] Samples were diluted with an equal volume of 1 M Ammonium Acetate (pH 7) to neutralize samples for better chromatography. […] EC50 values were calculated from concentration-response curves generated with GraphPad Prism Software.

[2] = biological target: Human soluble guanylate cyclase enzyme (hsGC) (Homo sapiens (Human), UniProt Q02108+Q02153); test: Purified human sGC enzyme activity assay; type: biochemical; conditions: for sGC Enzyme (specific activity at 10 μM) / sGC Enzyme (fold increase at 10 μM without SNP) / sGC Enzyme (fold increase at 10 μM): 10 μM compound; for sGC Enzyme (specific activity at 30 μM) / sGC Enzyme (fold increase at 30 μM without SNP) / sGC Enzyme (fold increase at 30 μM): 30 μM compound; for sGC Enzyme (fold increase at 10 μM) / sGC Enzyme (fold increase at 30 μM): without the addition of SNP
Procedure: Human soluble guanylate cyclase enzyme (hsGC) obtained from Enzo Inc. (P/N: ALX-201-177) was used to evaluate the activity of test compounds. The assay reactions contained 0.1 M Tris (pH 8.0), 0.5 mg/mL BSA (pH 8.0), 2 mM DTT, 2 mM MgCl2, 300 μM GTP, 1 mM 3-isobutyl-1-methylxanthine (IBMX) and 5 ng human soluble guanylate cyclase enzyme. Test compounds in DMSO were then added (2 μL, 10 or 30 μM final concentration) and incubated (200 μL, 96-well plate format) at 37° C. for 30 minutes. The controls were carried out using 2 μL DMSO. After the 30 minute incubation, the reaction was stopped with the addition of 200 μL of cold methanol. The plate was then centrifuged at 3,200 rpm for 10 minutes at room temperature. Supernatants (200 μL) were collected and transferred to a new 96 well plate for analysis.
An 8 point cGMP (Sigma-Aldrich P/N: G6129) standard curve was prepared in assay buffer ranging from 0.156-20 μM. Samples for the cGMP standard curve were then diluted with an equal volume of methanol resulting in final cGMP concentrations of 0.078-10 μM.
The cGMP standard curve was generated using GraphPad Prism Software.
Calculations: Specific Activity was determined by the amount of cGMP formed (nmoles) per mg of sGC per min. Enzyme “fold-change” was calculated by dividing Specific Activity for test compounds by Specific Activity of DMSO controls.

Human soluble guanylate cyclase enzyme (hsGC), sequence (Q02153 whole entry): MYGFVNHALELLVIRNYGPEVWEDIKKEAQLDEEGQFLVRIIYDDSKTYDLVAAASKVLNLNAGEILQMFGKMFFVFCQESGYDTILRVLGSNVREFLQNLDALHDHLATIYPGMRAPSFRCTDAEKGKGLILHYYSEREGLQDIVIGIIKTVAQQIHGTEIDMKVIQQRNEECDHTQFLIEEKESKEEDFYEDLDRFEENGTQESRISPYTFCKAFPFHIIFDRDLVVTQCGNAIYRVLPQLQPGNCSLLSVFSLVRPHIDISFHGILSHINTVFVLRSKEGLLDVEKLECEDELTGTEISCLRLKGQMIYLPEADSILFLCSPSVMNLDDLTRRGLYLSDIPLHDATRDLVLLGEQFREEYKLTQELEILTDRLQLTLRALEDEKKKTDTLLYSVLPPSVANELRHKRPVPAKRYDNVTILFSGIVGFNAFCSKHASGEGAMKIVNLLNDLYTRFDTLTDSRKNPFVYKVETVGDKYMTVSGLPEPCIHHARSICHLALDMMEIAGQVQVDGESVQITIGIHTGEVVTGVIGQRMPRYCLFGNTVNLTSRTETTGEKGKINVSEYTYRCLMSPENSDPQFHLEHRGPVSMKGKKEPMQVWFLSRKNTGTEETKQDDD
Human soluble guanylate cyclase enzyme (hsGC), sequence (Q02108 whole entry): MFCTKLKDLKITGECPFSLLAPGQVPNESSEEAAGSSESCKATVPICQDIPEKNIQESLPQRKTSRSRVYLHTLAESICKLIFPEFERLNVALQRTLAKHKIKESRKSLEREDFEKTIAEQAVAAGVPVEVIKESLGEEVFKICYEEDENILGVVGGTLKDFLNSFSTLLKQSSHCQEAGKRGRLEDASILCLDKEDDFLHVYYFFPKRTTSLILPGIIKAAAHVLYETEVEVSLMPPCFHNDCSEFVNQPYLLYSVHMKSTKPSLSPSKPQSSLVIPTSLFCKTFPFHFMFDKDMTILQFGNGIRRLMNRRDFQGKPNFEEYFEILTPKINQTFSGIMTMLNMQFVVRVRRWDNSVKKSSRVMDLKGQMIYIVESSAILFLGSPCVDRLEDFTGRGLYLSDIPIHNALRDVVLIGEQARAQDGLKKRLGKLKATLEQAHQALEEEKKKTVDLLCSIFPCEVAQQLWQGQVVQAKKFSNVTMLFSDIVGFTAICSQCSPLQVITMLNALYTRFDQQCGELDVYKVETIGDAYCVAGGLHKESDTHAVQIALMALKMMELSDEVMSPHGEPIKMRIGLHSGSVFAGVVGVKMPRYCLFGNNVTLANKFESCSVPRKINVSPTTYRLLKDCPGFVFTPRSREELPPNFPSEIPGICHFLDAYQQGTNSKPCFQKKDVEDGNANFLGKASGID
soluble guanylate cyclase (sGC), sequence (Q02153 whole entry): as the sequence (Q02153 whole entry) above
soluble guanylate cyclase (sGC), sequence (Q02108 whole entry): as the sequence (Q02108 whole entry) above

SMILES | Emax at 10 µM [1] [%] | Emax at 30 µM [1] [%] | sGC Enzyme (specific activity at 10 μM) [2] | sGC Enzyme (fold increase at 10 μM without SNP) [2] | sGC Enzyme (specific activity at 30 μM) [2] | sGC Enzyme (fold increase at 30 μM without SNP) [2] | sGC Enzyme (fold increase at 10 μM) [2] | sGC Enzyme (fold increase at 30 μM) [2]
Cc1cc(-c2cc(-c3ccccn3)nn2Cc2ccccc2F)c(C)s1 [Compound I-8] | 0 to 10 | 0 to 10 | C (C = 100 to <200) | A (A = no increase to <2 fold increase) | D (D = 200 to <500) | B (B = 2 to <5 fold increase) |  | 
Fc1cccc(-c2cc(-c3ccccn3)nn2Cc2ccccc2F)c1 [Compound I-9] | 0 to 10 | 0 to 10 | C (C = 100 to <200) | A (A = no increase to <2 fold increase) | C (C = 100 to <200) | B (B = 2 to <5 fold increase) |  | 
Fc1ccc(-c2cc(-c3ccccn3)nn2Cc2ccccc2F)cc1 [Compound I-12] | 0 to 10 | 0 to 10 | C (C = 100 to <200) | A (A = no increase to <2 fold increase) | C (C = 100 to <200) | A (A = no increase to <2 fold increase) |  | 
Cc1cc(-c2cc(-c3ncccn3)nn2Cc2ccccc2F)c(C)s1 [Compound I-14] | 0 to 10 | 0 to 10 | C (C = 100 to <200) | A (A = no increase to <2 fold increase) | C (C = 100 to <200) | A (A = no increase to <2 fold increase) |  | 
N#Cc1cccc(-c2cc(-c3ccccn3)nn2Cc2ccccc2F)c1 [Compound I-16] |  |  | B (B = 50 to <100) | A (A = no increase to <2 fold increase) | B (B = 50 to <100) | A (A = no increase to <2 fold increase) |  | 
N#Cc1ccc(-c2cc(-c3ccccn3)nn2Cc2ccccc2F)cc1 [Compound I-17] |  |  | B (B = 50 to <100) | A (A = no increase to <2 fold increase) | B (B = 50 to <100) | A (A = no increase to <2 fold increase) |  | 
CS(=O)(=O)c1ccc(-c2cc(-c3ccccn3)n(Cc3ccccc3F)n2)nc1 [Compound I-50, 2-(1-(2-fluorobenzyl)-5-(pyridin-2-yl)-1H-pyrazol-3-yl)-5-(methylsulfonyl)pyridine] | 0 to 10 | 0 to 10 | B (B = 50 to <100) | A (A = no increase to <2 fold increase) | B (B = 50 to <100) | A (A = no increase to <2 fold increase) |  | 
COc1ccc(-c2cc(-c3ncccn3)nn2Cc2ccccc2F)cn1 [Compound I-77, 2-(1-(2-fluorobenzyl)-5-(6-methoxypyridin-3-yl)-1H-pyrazol-3-yl)pyrimidine] |  |  |  |  |  |  | A (A = no increase to <2 fold increase) | A (A = no increase to <2 fold increase)
COc1cccc(-c2cc(-c3ccccn3)n(Cc3ccccc3F)n2)n1 [Compound I-78] |  |  |  |  |  |  | A (A = no increase to <2 fold increase) | A (A = no increase to <2 fold increase)
